According to patent publication US6638936B1, “Benzofurylpiperazine serotonin agonists” (Eli Lilly and Company, priority 1999, dated 2003):
Read-outs that look alike come from different tables or passages of the source.

Tests used:
5-HT2b receptor = 5-HT2b receptor (Homo sapiens, UniProt P41595); assay: Serotonergic receptor binding selectivity, 5-HT2b
5-HT1a receptor = molecular target: T1, 5-HT1a receptor (Homo sapiens, UniProt P08908); assay: Serotonergic receptor binding selectivity, 5-HT1a
T1 sequence (P08908 1-422): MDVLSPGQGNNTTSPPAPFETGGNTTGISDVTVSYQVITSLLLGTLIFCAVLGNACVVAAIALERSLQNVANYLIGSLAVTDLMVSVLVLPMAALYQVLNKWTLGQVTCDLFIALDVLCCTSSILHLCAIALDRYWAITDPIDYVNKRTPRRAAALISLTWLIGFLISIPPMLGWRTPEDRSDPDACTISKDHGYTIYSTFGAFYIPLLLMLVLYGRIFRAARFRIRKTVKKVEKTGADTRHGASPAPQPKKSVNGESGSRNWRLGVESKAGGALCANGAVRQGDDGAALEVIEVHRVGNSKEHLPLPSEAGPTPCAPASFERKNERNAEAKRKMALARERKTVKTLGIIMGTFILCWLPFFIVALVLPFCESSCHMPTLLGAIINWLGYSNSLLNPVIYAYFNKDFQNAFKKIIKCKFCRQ

5-HT1d receptor = 5-HT1d receptor (Homo sapiens, UniProt P28221); assay: Serotonergic receptor binding selectivity, 5-HT1d; conditions: 5-HT RECEPTOR 1d
5-HT6 receptor = 5-HT6 receptor (Homo sapiens, UniProt P50406); assay: Serotonergic receptor binding selectivity, 5-HT6
5-HT1f receptor = molecular target: T2, 5-HT1f receptor (Homo sapiens, UniProt P30939); assay: Serotonergic receptor binding selectivity, 5-HT1f; conditions: 5-HT RECEPTOR 1f
T2 sequence (P30939 1-366): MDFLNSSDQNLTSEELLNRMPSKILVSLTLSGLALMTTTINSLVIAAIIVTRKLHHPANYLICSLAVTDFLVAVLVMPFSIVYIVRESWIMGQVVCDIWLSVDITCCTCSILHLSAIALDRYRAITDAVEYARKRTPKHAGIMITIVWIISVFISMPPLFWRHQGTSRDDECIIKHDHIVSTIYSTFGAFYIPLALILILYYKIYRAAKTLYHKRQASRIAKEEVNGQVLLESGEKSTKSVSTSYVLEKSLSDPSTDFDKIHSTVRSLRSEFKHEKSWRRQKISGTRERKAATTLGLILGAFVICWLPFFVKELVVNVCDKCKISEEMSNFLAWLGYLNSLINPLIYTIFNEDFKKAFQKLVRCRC

human 5-HT2C receptor [1] = molecular target: T3, human 5-HT2C receptor (Homo sapiens, UniProt P28335); assay: [35S]-GTPγS binding (immunoadsorption scintillation proximity assay); type: biochemical; conditions: for functional activity at the 5-HT2c receptor (in words): [35S]-GTPγS assay
T3 construct: expressed in transfected cells
T3 sequence (P28335 33-458): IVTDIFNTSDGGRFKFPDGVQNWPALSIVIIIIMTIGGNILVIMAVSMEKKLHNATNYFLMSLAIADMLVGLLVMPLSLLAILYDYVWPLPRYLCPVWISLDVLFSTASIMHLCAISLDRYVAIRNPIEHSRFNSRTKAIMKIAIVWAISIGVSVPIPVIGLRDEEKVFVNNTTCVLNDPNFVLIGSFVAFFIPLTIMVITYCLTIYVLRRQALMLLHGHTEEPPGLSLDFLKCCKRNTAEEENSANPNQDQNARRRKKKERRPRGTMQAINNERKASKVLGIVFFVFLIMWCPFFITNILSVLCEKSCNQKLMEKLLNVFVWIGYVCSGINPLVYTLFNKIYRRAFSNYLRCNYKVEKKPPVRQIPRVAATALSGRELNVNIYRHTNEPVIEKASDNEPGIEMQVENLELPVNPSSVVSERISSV
Text: The 5-HT2C receptor is functionally coupled to specific G-proteins. Agonist activation of 5-HT2C G-protein-coupled receptors results in the release of GDP from the […] (G alpha q or G alpha i) of the G-protein and the subsequent binding of GTP. The binding of the stable analog [^35S]-GTPγS is an indicator of this receptor's activation.
The immunoadsorption scintillation proximity assay (ISPA) in microtiter plates of [^35S]-GTPγS binding to G alpha q or G alpha i was modified from published conditions (DeLapp et al, JPET 289 (1999) 946-955). Test compounds were dissolved in DMSO and diluted in assay buffer consisting of 50 mM Tris-HCl (pH 7.4), 10 mM MgCl2, 100 mM NaCl, and 0.2 mM EGTA. Incubations were performed over 12 test concentrations; volume was 200 μl. The incubation also contained […] and 0.25 nM [^35S]-GTPγS. Membrane homogenates from AV12 cells stably transfected with the human 5-HT2C receptor were added and the microtiter plates were incubated for 30 minutes at room temperature. The incubation was terminated by the addition of Nonidet P-40 (final concentration of 0.27%), followed by addition of rabbit polyclonal anti-G alpha q/11 antibody (0.2 μg per well), and anti-rabbit scintillation proximity assay beads (Amersham; 1.25 mg per well; final volume was 290 μl). The mixture was incubated for 3 hours at room temperature to complete the immunoadsorption of [^35S]-GTPγS bound to G alpha q/11. Microtiter plates were centrifuged briefly to pellet beads. [^35S]-GTPγS binding was quantitated by microtiter plate scintillation spectrometry (Wallac). Data analysis was performed by nonlinear regression analysis with GraphPad Prism software running on a personal computer, using 5-HT control concentration-response curves to define maximal stimulation of [^35S]-GTPγS binding.

5-HT2a receptor = 5-HT2a receptor (Homo sapiens, UniProt P28223); assay: Serotonergic receptor binding selectivity, 5-HT2a
5-HT1e receptor = 5-HT1e receptor (Homo sapiens, UniProt P28566); assay: Serotonergic receptor binding selectivity, 5-HT1e; conditions: 5-HT RECEPTOR 1e
5-HT1b receptor = 5-HT1b receptor (Homo sapiens, UniProt P28222); assay: Serotonergic receptor binding selectivity, 5-HT1b; conditions: 5-HT RECEPTOR 1b
human 5-HT2C receptor [2] = molecular target: T3, human 5-HT2C receptor; assay: [125I]-DOI binding for determination of 5-HT2c receptor affinity; conditions: for Ki: 5-HT RECEPTOR 2c, [125I]-DOI, membranes of AV12 cells with human 5-HT2c, Ki from IC50 by Cheng-Prusoff; for affinity for the 5-HT2c receptor (in words): [125I]-DOI binding
Procedure: The ability of the compounds of Formula I to bind to the 5-HT2c receptor subtype was measured essentially as described by Wainscott (Wainscott, et al., Journal of Pharmacology and Experimental Therapeutics, 276, 720-727 (1996)).
AV12 cells stably transfected with the human 5-HT2c receptors were grown in suspension and harvested by centrifugation, resuspended in 50 mM tris-HCl, pH 7.4, and frozen at −70° C. On the day of assay, an aliquot of cells was thawed, resuspended in 40 mL of 50 mM tris-HCl, pH 7.4, and centrifuged at 39,800×g for 10 minutes at 4° C. The resulting pellet was resuspended, incubated at 37° C. for 10 minutes to remove endogenous serotonin, then centrifuged twice more.
Briefly, prepared cell membranes were added to dilutions of compounds in a final solution containing 50 mM tris-HCl, pH 7.4, 9.75 mM MgCl2, 0.5 mM EDTA, 10 μM pargyline, 0.1% sodium ascorbate, and 0.1 nM [^125I]-DOI, with 10 μM mianserin for defining non-specific binding. All incubations (800 μL) were performed at 37° C. for 30 minutes before harvesting onto GF/C filters prewet with 0.5% polyethyleneimine, with four 1 mL washes of ice-cold 50 mM tris-HCl, pH 7.4, and counting in a gamma counter. Nonlinear regression analysis was performed on the concentration response curves using a four parameter logistic equation described by DeLean (DeLean, et al., Molecular Pharmacology, 21, 5-16 (1982)). IC50 values were converted to Ki values using the Cheng-Prusoff equation (Cheng, et al., Biochem. Pharmacol., 22, 3099-3108 (1973)).

5-HT4 receptor = 5-HT4 receptor (Homo sapiens, UniProt Q13639); assay: Serotonergic receptor binding selectivity, 5-HT4; conditions: 5-HT RECEPTOR 4
Sequence of 5-HT4 receptor (Q13639 whole entry): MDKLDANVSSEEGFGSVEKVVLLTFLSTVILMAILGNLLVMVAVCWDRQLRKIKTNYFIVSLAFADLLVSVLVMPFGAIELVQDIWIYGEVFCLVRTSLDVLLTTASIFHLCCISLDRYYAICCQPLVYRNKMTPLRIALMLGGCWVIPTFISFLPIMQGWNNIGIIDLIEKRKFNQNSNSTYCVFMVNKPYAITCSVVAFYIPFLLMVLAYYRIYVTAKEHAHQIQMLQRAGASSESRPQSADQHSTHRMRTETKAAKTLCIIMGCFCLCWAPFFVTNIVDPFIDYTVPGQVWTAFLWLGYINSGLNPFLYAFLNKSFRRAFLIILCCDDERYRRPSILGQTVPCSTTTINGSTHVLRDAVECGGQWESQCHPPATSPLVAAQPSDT

Sequence of 5-HT1b receptor (P28222 whole entry): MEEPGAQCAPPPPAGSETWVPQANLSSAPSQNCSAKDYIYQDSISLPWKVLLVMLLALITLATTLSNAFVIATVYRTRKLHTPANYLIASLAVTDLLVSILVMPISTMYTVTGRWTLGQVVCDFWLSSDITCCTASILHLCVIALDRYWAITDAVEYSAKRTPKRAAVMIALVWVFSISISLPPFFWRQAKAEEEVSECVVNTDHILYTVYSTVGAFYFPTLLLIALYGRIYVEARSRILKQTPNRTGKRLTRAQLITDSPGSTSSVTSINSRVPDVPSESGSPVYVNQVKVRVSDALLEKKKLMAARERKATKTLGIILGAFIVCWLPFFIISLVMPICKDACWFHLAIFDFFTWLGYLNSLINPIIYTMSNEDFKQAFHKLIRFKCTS
Sequence of 5-HT6 receptor (P50406 whole entry): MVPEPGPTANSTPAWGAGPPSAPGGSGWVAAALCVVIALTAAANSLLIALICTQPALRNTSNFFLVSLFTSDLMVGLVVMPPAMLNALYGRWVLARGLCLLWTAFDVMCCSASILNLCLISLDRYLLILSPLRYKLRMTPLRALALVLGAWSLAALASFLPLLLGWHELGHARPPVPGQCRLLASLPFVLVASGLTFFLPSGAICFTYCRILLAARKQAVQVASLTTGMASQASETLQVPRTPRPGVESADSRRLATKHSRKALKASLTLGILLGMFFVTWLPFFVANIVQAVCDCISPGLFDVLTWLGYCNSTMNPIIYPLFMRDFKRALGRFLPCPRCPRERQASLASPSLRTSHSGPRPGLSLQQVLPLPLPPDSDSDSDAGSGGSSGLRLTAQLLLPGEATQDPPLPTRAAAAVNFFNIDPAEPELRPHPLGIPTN
Sequence of 5-HT2a receptor (P28223 whole entry): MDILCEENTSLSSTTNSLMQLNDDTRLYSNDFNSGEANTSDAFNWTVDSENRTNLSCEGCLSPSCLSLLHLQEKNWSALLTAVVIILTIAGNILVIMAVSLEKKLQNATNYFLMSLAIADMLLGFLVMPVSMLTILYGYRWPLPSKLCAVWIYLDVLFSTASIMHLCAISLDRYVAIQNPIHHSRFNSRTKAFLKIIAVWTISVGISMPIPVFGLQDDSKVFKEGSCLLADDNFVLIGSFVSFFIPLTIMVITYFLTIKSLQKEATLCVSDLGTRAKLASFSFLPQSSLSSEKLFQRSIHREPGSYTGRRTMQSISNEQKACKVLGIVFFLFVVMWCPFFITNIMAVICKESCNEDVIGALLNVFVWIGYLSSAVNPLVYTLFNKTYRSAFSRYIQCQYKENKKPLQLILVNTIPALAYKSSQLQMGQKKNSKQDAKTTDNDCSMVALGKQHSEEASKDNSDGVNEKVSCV
Sequence of 5-HT2b receptor (P41595 whole entry): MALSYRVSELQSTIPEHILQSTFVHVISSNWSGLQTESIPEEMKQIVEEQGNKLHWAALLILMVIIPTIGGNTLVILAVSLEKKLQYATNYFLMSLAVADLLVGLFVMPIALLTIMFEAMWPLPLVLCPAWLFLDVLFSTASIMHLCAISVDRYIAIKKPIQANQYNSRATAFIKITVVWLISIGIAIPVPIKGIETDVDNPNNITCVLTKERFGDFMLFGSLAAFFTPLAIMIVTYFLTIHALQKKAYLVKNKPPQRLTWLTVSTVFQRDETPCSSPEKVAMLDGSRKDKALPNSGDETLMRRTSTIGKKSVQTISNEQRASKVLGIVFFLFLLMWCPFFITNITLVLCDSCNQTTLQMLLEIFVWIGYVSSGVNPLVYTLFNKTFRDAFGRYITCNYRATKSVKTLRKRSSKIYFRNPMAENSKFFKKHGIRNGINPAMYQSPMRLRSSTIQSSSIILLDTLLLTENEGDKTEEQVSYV
Sequence of 5-HT1d receptor (P28221 whole entry): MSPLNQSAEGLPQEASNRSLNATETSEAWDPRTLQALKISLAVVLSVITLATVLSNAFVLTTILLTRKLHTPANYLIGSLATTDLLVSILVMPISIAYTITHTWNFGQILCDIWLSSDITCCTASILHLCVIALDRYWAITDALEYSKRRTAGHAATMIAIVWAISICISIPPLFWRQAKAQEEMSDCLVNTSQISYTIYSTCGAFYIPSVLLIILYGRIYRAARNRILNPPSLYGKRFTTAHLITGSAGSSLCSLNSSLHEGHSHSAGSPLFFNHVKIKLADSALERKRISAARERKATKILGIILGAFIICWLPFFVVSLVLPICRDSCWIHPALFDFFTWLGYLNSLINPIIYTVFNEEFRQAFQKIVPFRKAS
Sequence of 5-HT1e receptor (P28566 whole entry): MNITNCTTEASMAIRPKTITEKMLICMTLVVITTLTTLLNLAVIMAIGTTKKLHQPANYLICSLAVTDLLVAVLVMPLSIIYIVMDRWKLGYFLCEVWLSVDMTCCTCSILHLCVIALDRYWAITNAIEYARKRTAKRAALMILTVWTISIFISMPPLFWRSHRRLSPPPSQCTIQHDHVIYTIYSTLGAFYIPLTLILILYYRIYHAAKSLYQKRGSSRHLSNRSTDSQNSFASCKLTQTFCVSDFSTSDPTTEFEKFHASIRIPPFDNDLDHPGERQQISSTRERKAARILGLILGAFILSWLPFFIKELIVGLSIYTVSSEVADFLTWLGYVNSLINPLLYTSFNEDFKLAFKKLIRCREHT

| SMILES | Ki (5-HT2b receptor; 5-HT RECEPTOR 2b, read-out: Ki, 5-HT receptor 2b) | Ki (5-HT1a receptor; 5-HT RECEPTOR 1a, read-out: Ki, 5-HT receptor 1a) | Ki (5-HT1d receptor) | Ki (5-HT6 receptor; 5-HT RECEPTOR 6, read-out: Ki, 5-HT receptor 6) | Ki (5-HT1f receptor) | functional activity at the 5-HT2c receptor (in words) (human 5-HT2C receptor [1]) | EC50 (human 5-HT2C receptor [1]; agonist of 5-HT2c receptor, membranes of AV12 cells with human 5-HT2C, 5-HT defines maximal stimulation, read-out: EC50, [35S]-GTPγS assay) | Ki (5-HT2a receptor; 5-HT RECEPTOR 2a, read-out: Ki, 5-HT receptor 2a) | Ki (5-HT1e receptor) | Ki (5-HT1b receptor) | Ki (human 5-HT2C receptor [2]) | affinity for the 5-HT2c receptor (in words) (human 5-HT2C receptor [2]) | Ki (5-HT2b receptor) | Ki (5-HT4 receptor) | Ki (5-HT1a receptor) | Ki (5-HT6 receptor) | EC50 (human 5-HT2C receptor [1]) | Ki (5-HT2a receptor) |
| --- | --- | --- | --- | --- | --- | --- | --- | --- | --- | --- | --- | --- | --- | --- | --- | --- | --- | --- |
| CC[C@H]1CN(c2ccc(C(F)(F)F)c3ccoc23)CCN1.O=C(O)/C=C/C(=O)O [Example 2, 1-(4-trifluoromethylbenzofur-7-yl)-3(S)-ethylpiperazine fumarate] | 0.177 µM | 0.261 µM | 0.726 µM | 0.607 µM | 1 µM | agonist | 0.0078 µM | 0.0278 µM | 1.14 µM | 2.94 µM | 0.00077 µM | found to have affinity |  |  |  |  |  |  |
| C[C@H]1CN(c2ccc(C(F)(F)F)c3ccoc23)CCN1.O=C(O)/C=C/C(=O)O [Example 1, 1-(4-trifluoromethylbenzofur-7-yl)-3(S)-methylpiperazine fumarate] |  |  | 0.147 µM |  | 0.163 µM | agonist |  |  | 0.633 µM | 0.26 µM | 0.00241 µM | found to have affinity | 0.177 µM | 0.977 µM | 0.134 µM | 0.225 µM | 0.0085 µM | 0.0376 µM |
